Where two headings read alike, the source gives them in different places.
Columns and labels:
[1] = test system: Chk1 and Chk2 phosphorylation in Detroit 562 head and neck cancer cells; experiment: Western blot after bleomycin, Detroit 562; type: cell-based; conditions: 100 nM 24 hours prior to bleomycin (5 μM)
Protocol: Protein expression of Parp, P-Chk1, P-Chk2, and Gapdh (control) was measured at the indicated time points (1, 4, and 8 hours) after bleomycin treatment.
Protein expression was measured at the indicated time points after bleomycin treatment.

Hs746T = experiment: 72 hr viability by Syto60, Hs746T; type: cell-based; conditions: Homo sapiens
Protocol: Many of the oncoproteins associated with gastric cancer and Hsp90 client proteins including HER2, MET, RAS and the FGFR family. […] Cells were treated for 72 hr and viability determined by CTG (upper) or Syto60 (lower).

[2] = Serial PK in patients with solid tumors, twice-weekly infusion; type: in vivo, human
From the text: (§1) Serial PK and pharmacodynamic samples were obtained during cycle 1. Safety assessments included frequency and grade of adverse events (AEs), laboratory parameters and ECG changes.

[3] = test system: Hsp90 client proteins in AGS gastric cancer cells; experiment: Western blot of Hsp90 client proteins, AGS; type: cell-based
[4] = test system: human KRAS mutant NSCLC tumor xenografts; experiment: KRAS mutant NSCLC tumor xenografts in vivo; design: species or system mouse; conditions: single agent
Protocol: Female immunodeficient CD-1 (nude) mice (Charles River Laboratories, Wilmington, Mass.) were maintained in a pathogen-free environment, and all in vivo procedures were approved by the Synta Pharmaceuticals Corp. Institutional Animal Care and Use Committee. A549 NSCLC cells (7.5×10^6) were subcutaneously implanted into the animals. […] Tumor growth inhibition was determined as described previously. See Proia et al, PLoS One. 2011; 6(4):e18552.

[5] = test system: MET, IGF-IR, AKT in MKN45 cells; experiment: Western blot of Hsp90 client proteins, MKN45; type: cell-based
[6] = Pharmacokinetics in the Phase 1 combination trial with docetaxel; type: in vivo, human; conditions: patients
Protocol: A trial to evaluate three dose-level combinations of docetaxel and the compound of formula (I), administered on a three-week cycle, with the primary objective of determining an optimal dose for future clinical trials was performed. […] The standard of care dose level for docetaxel was 75 mg/m^2. A total of 19 patients received at least one dose of study treatment at the cut-off time. The median number of cycles of treatment was 4, with a range of 1 to 11 cycles of treatment. No prophylactic treatment for neutropenia was used.

[7] = test system: Detroit 562 H/N cancer cells; experiment: Single agent viability assay, Detroit 562, 72 hr; type: cell-based
From the text: Head and neck (H/N) cancer refers to a group of biologically similar cancers originating from the upper autodigestive tract. First line therapies include EGFR inhibitors and platins.

NSCLC = experiment: Phase 2 clinical trial in NSCLC by KRAS, EGFR and ALK mutation status; type: in vivo, human
Protocol: Initial cohorts were defined by mutation status: A) EGFR mutation, KRAS wild-type B) EGFR wild-type, KRAS mutation C) EGFR wild-type, KRAS wild-type (WT). If ≧2/14 patients in A, B or C were progression-free at 16 weeks, enrollment increased to 23 patients for that cohort. Tumor response was assessed every 8 weeks. Cohort D was added to include 35 additional EGFR wild-type and KRAS wild-type patients with adenocarcinoma histology. FISH analysis for ALK translocation, was performed for Cohorts C and D.

solid tumors [8] = experiment: Phase 2 study in solid tumors, twice-weekly infusion; type: in vivo, human
From the text: as §1

solid tumors [9] = experiment: Phase I dose escalation study, twice-weekly administration in patients with solid tumors; type: in vivo, human; conditions: 41 of 54 enrolled patients assessable; 1-hour infusion 2 times per week, 3 weeks on, 1 week dose-free
Protocol: An open-label Phase 1 dose-escalation study in subjects with solid tumors was performed. […] The first infusion for the first three subjects was staggered by a minimum of 5 days between subjects. This staggered enrollment scheme was followed for the first cohort only.
Subsequent cohorts were originally planned to receive escalating doses of 4, 7, 10, 14, 19, 25, 33, 40 and 48 mg/m^2, provided that the previous dose was well-tolerated during cycle 1 (week 1-4). The dose escalation scheme was updated to 25, 50, 75 and 100 mg/m^2, provided that the previous dose was well-tolerated during cycle 1. Following the completion of enrollment at 50 mg/m^2 twice per week, subsequent cohorts were to be treated at 100 mg/m^2 (100% increase above prior dose) and 120 mg/m^2 (20% increase above prior dose), with further dose increments to be approximately 20% over the previous dose level, until the maximum tolerated dose (MTD) was determined. Enrollment was completed at 100 mg/m^2 and the next doses planned were 120 mg/m^2 and 144 mg/m^2.
There had to be at least three evaluable subjects in a cohort before dose escalation could occur. […] Once a subject experienced a DLT the cohort was expanded to six subjects. If only 1 of 6 subjects experienced a DLT, further dose escalation was allowed. However, if 2 of 3 or 2 of 6 subjects experienced a DLT, dose escalation terminated. […]

HCC70 = experiment: 72 hr viability by CTG, HCC70; type: cell-based; conditions: Homo sapiens, HCC70, Basal A
Protocol: Breast cancer is a heterogeneous disease historically broken down into 4 subtypes. Various compounds were tested for their effects in cell viability assays using various breast cancer cell lines. Cellular viability was assessed using the CellTiter-Glo® Luminescent Cell Viability Assay (Promega, Madison, Wis., USA) according to the manufacturer's protocol. […] were seeded into 96-well plates based on optimal growth rates determined empirically for each line. […] CellTiter-Glo® was added (50% v/v) to the cells, and the plates incubated for 10 min prior to luminescent detection in a SpectraMax® Plus 384 microplate reader (Molecular Devices, Sunnyvale, Calif., USA). Data were normalized to percent of control and IC50 values used to determine the sensitivity of each line.

GIST = experiment: Phase 2 study in gastrointestinal stromal tumors (GIST); type: in vivo, human
Protocol: GIST status was assessed at 8 weeks per RECIST, until progression.

Protocol for metastatic breast cancer: The primary endpoint of the trial was overall response rate using RECIST 1.1. Patients with HER2+ breast cancer were required to have received prior therapy with trastuzumab. No more than 3 lines of chemotherapy in the metastatic setting were permitted, but there was no limit on prior lines of hormone therapy. Patients were evaluated for response after 2 cycles. The trial used a Simon two-stage design requiring at least 3 responses among the first 22 patients, to allow expansion to a total of 40 patients.

CC(C)c1cc(-c2nnc(O)n2-c2ccc3c(ccn3C)c2)c(O)cc1O [compound of formula (I), ganetespib]
Effect on bleomycin-increased Chk1 and Chk2 phosphorylation [1]: blocked
IC50 (Hs746T): 384 nM
Distribution [2]: rapid distribution
Effect on B-RAF expression [3]: enhanced B-RAF expression
Effect on Hsp90 client protein expression [3]: abolished the expression of EGFR, IGF-IR, C-RAF and their down-stream effectors PI3K/AKT and MAPK
Growth of tumor xenografts [4]: effectively suppressed the growth
Effect on MET, IGF-IR and AKT [5]: complete degradation of MET and IGF-IR, followed by inactivation of AKT
Effect on docetaxel pharmacokinetics [6]: no effect
Pharmacokinetics alone versus administered prior to docetaxel [6]: pharmacokinetic similarity
Extent of cell kill after 72 hr exposure [7]: A fraction of cells remained viable
Adverse events reported in >20% of patients (NSCLC; 73 patients, 200 mg/m^2 once weekly for 3 of a 4-wk cycle, generally grade 1-2): diarrhea, fatigue, nausea, anorexia, constipation, and dyspnea
Objective response rate (CR + PR) (NSCLC; ALK+ patients, 4/8): 50%
Best response reported, cohort C (NSCLC; Cohort C: EGFR wild-type, KRAS wild-type): durable partial response (PR)
Tolerability (NSCLC; single agent, 200 mg/m^2 once weekly): well-tolerated in patients with NSCLC at 200 mg/m^2 once weekly without severe liver, ocular, cardiovascular or renal toxicity
Tolerability (solid tumors [8]; twice-weekly): well-tolerated administered twice-weekly
Response in a patient with metastatic melanoma (solid tumors [8]; twice-weekly dosing): confirmed durable PR by RECIST
Confirmed partial responses, melanoma (solid tumors [9]): 1 patient
Confirmed partial responses, triple negative breast cancer (solid tumors [9]): 1 patient
CBR (CR + PR + SD > 6 months) (metastatic breast cancer; ER+/HER2− (N = 6)): 0 patients
CR (metastatic breast cancer; ER+/HER2− (N = 6)): 0 patients
ORR (metastatic breast cancer; ER+/HER2− (N = 6)): 0 patients
PR (metastatic breast cancer; ER+/HER2− (N = 6)): 0 patients
CBR (CR + PR + SD > 6 months) (metastatic breast cancer; HER2+ (N = 13)): 2 (9%) patients (%)
CR (metastatic breast cancer; HER2+ (N = 13)): 0 patients
ORR (metastatic breast cancer; HER2+ (N = 13)): 2 (9%) patients (%)
PR (metastatic breast cancer; HER2+ (N = 13)): 2 patients
CBR (CR + PR + SD > 6 months) (metastatic breast cancer; TNBC (N = 3)): 0 patients
CR (metastatic breast cancer; TNBC (N = 3)): 0 patients
ORR (metastatic breast cancer; TNBC (N = 3)): 0 patients
PR (metastatic breast cancer; TNBC (N = 3)): 0 patients
CBR (CR + PR + SD > 6 months) (metastatic breast cancer; Total (N = 22)): 2 (9%) patients (%)
CR (metastatic breast cancer; Total (N = 22)): 0 patients
PR (metastatic breast cancer; Total (N = 22)): 2 (9%) patients (%)
ORR (metastatic breast cancer; Total (N = 22), 200 mg/m^2 once weekly 3 weeks of 28 day cycle, RECIST 1.1): 2 (9%) patients (%)
IC50 (HCC70): 114 nM
Patients with SD≧8 wks (GIST; 23 evaluable patients): 8 patients
Patients with SD≧16 wks (GIST; 23 evaluable patients): 4 patients
Tolerability (GIST; once-weekly dosing): well-tolerated in patients with heavily pre-treated advanced GIST, with no evidence of severe liver, ocular, cardiac or renal toxicity

Source: patent US20140135370A1, “TREATING CANCER WITH AN HSP90 INHIBITORY COMPOUND” (SYNTA PHARMACEUTICALS CORP., priority 2011, published 2014)
